According to patent publication US20250034216A1, “STEREOSELECTIVE COVALENT LIGANDS FOR ONCOGENIC AND IMMUNOLOGICAL PROTEINS” (The Scripps Research Institute, priority 2021, published 2025):

Molecular target: T1, VWA5B2_C1040 (Homo sapiens, UniProt Q8N398)
T1 construct: endogenous in cells; host or cells: 22Rv1
T1 sequence (Q8N398 1-1242): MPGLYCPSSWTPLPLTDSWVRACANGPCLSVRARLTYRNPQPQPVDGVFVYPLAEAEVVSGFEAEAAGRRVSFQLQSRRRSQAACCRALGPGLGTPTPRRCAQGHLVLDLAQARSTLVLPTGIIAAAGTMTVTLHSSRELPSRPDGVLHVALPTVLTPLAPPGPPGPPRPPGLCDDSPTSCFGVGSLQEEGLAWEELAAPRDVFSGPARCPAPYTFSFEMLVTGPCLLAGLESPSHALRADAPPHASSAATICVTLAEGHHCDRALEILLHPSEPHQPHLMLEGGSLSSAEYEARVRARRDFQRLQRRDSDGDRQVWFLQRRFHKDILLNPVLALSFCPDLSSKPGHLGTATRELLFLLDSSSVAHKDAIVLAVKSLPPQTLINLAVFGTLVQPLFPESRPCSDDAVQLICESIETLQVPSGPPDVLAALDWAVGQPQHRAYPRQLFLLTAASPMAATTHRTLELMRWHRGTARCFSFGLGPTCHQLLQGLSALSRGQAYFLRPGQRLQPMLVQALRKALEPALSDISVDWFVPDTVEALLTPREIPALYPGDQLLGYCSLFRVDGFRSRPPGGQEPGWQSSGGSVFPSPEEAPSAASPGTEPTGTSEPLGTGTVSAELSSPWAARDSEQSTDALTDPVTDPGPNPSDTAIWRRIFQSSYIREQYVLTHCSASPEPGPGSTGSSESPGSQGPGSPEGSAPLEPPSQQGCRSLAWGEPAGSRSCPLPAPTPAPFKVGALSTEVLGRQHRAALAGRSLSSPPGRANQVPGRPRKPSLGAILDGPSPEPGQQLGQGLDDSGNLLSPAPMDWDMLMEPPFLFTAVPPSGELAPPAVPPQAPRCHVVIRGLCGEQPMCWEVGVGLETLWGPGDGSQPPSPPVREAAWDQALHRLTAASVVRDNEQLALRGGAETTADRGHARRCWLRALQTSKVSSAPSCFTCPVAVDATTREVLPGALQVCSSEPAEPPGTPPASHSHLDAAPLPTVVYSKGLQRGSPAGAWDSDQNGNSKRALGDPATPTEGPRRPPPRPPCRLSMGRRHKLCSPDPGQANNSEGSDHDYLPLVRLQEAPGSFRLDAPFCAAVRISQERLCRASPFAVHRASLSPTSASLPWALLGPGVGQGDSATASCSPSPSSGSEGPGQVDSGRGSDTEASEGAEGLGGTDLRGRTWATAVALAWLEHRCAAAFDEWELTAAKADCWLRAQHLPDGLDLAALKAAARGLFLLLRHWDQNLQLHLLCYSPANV
Experiment: IA-DTB cysteine engagement
Assay type: binding
Settings: 22Rv1 cells, 20 μM probe, 1 h, relative to DMSO
Outline: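 Probe-exposed cells were lysed, IA-DTB-labeled, trypsinized and streptavidin-enriched. Multiplexed TMT quantitation gave engagement ratios versus DMSO, with non-tryptic peptides excluded and intensities normalized to median summed signal.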

SMILES | % engagement VWA5B2_C1040 [%]
C=CC(=O)N1C[C@@H](c2ccc(Br)cc2)[C@H]1C(=O)Nc1cccc2cccnc12 [MY-1A, (2S,3R)-1-acryloyl-3-(4-bromophenyl)-N-(quinolin-8-yl)azetidine-2-carboxamide] | 76.5
C=CC(=O)N1C[C@H](c2ccc(Br)cc2)[C@@H]1C(=O)Nc1cccc2cccnc12 [MY-1B, (2R,3S)-1-acryloyl-3-(4-bromophenyl)-N-(quinolin-8-yl)azetidine-2-carboxamide] | 76.25
C=CC(=O)N1C[C@H](c2ccc(Br)cc2)[C@H]1C(=O)Nc1cccc2cccnc12 [MY-3A, (2S,3S)-1-acryloyl-3-(4-bromophenyl)-N-(quinolin-8-yl)azetidine-2-carboxamide] | 51.5
C=CC(=O)N1C[C@H](c2ccc(Br)cc2)[C@H]1C(=O)Nc1cccc2cccnc12 [MY-3B, (2S,3S)-1-acryloyl-3-(4-bromophenyl)-N-(quinolin-8-yl)azetidine-2-carboxamide] | 74.25
